ChEMBL document CHEMBL5143655, “Synthesis and biological evaluation of 1,2,4-triazole derivatives as potential Nrf2 activators for the treatment of cerebral ischemic injury” (Eur J Med Chem, 2022)
pIC50: −log10 of the molar value. Activity calls are given as the source filed them. No cut-off for these calls is given here.

Legend:
Rattus norvegicus [1] = experiment: Neuroprotective activity in Sprague-Dawley rat model of middle cerebral artery occlusion-induced ischemia reperfusion injury assessed as increase in serum SOD level at 3 to 30 mg/kg, ip preincubated for 1 hrs followed by MCAO operation and further incubated with compound for 4 hrs after reperfusion; type: functional, organism-based; details: dose 3-30 mg/kg, time 5.0 hrs
[2] = MRT in Sprague-Dawley rat at 5 mg/kg, iv measured upto 24 hrs by LC-MS/MS analysis; type: ADME, organism-based; details: in vivo
[3] = Tmax in Sprague-Dawley rat at 5 mg/kg, iv measured upto 24 hrs by LC-MS/MS analysis; type: ADME, organism-based; details: in vivo
Rattus norvegicus [4] = experiment: Neuroprotective activity in Sprague-Dawley rat model of middle cerebral artery occlusion-induced ischemia-reperfusion injury assessed as attenuation of behavioral deficit at 30 mg/kg, ip preincubated for 1 hrs followed by MCAO operation and further incubated with compound for 4 hrs after reperfusion; type: functional; details: time 5 hrs
[5] = target: T1, Nuclear factor erythroid 2-related factor 2 (Rattus norvegicus) (UniProt O54968); experiment: Activation of Nrf2 pathway in rat PC-12 cells assessed as increase in NQO1 level at 2.5 to 10 uM measured after 3 hrs by Western blot analysis; type: cell-based; details: filed as activator, dose 2.5-10 µM
T1 sequence (whole entry): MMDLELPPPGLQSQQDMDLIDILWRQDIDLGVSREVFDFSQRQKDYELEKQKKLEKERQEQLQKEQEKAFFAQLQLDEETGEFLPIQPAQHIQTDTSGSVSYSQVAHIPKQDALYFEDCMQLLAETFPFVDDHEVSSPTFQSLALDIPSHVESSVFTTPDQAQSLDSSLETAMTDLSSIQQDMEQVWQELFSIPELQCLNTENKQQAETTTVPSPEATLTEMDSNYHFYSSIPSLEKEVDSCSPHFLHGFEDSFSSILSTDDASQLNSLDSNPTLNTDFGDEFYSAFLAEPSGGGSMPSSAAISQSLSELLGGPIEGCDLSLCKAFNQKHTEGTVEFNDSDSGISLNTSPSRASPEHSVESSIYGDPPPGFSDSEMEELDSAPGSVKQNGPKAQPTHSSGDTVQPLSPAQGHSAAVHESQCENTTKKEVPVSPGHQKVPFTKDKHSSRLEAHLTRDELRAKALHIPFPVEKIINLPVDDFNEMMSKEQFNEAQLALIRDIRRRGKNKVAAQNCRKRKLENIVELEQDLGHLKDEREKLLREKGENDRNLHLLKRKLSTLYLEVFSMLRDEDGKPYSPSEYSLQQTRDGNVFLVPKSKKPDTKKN

[6] = Metabolic stability in human plasma assessed as parent compound remaining at 200 uM measured after 120 min by LC-MS/MS analysis relative to control; type: ADME, cell-free; details: read-out: Stability
[7] = MRT in Sprague-Dawley rat at 5 mg/kg, ip measured upto 24 hrs by LC-MS/MS analysis; type: ADME, organism-based; details: in vivo
[8] = target: T1, Nuclear factor erythroid 2-related factor 2 (Rattus norvegicus); experiment: Activation of Nrf2 pathway in rat PC-12 cells assessed as reversal of ML385 induced inhibition of Nrf2 protein expression at 10 uM measured after 3 hrs in the presence of Nrf2 signalling inhibitor ML385 by Western blot analysis; type: cell-based; details: filed as activator
[9] = target: T1, Nuclear factor erythroid 2-related factor 2 (Rattus norvegicus); experiment: Activation of Nrf2 pathway in rat PC-12 cells assessed as increase in GCLC level at 2.5 to 10 uM measured after 3 hrs by Western blot analysis; type: cell-based; details: filed as activator, dose 2.5-10 µM
Rattus norvegicus [10] = experiment: Neuroprotective activity in Sprague-Dawley rat model of middle cerebral artery occlusion-induced ischemia-reperfusion injury assessed as attenuation of behavioral deficit at 10 mg/kg, ip preincubated for 1 hrs followed by MCAO operation and further incubated with compound for 4 hrs after reperfusion; type: functional; details: time 5 hrs
[11] = AUC (0 to infinity) in Sprague-Dawley rat at 5 mg/kg, iv measured upto 24 hrs by LC-MS/MS analysis; type: ADME, organism-based; design: dose 5 mg/kg, time < 24 hrs, route iv; details: in vivo
[12] = Clearence in Sprague-Dawley rat at 5 mg/kg, ip measured upto 24 hrs by LC-MS/MS analysis; type: ADME, organism-based; details: in vivo
PC-12 [13] = experiment: Neuroprotective activity against SNP induced rat PC-12 cells assessed as increase in cell viability at 10 uM preincubated for 2 hrs followed by SNP stimulation for 24 hrs by MTT assay relative to control; type: functional
Rattus norvegicus [14] = experiment: Neuroprotective activity in Sprague-Dawley rat model of middle cerebral artery occlusion-induced ischemia reperfusion injury assessed as decrease in serum MDA level at 3 to 30 mg/kg, ip preincubated for 1 hrs followed by MCAO operation and further incubated with compound for 4 hrs after reperfusion; type: functional, organism-based; details: dose 3-30 mg/kg, time 5.0 hrs
[15] = AUC (0 to infinity) in Sprague-Dawley rat at 5 mg/kg, ip measured upto 24 hrs by LC-MS/MS analysis; type: ADME, organism-based; design: time < 24 hrs, dose 5 mg/kg, route ip; details: in vivo
[16] = Metabolic stability in human plasma assessed as parent compound remaining at 200 uM measured after 60 min by LC-MS/MS analysis relative to control; type: ADME, cell-free; details: read-out: Stability
PC-12 [17] = experiment: Neuroprotective activity against SNP induced rat PC-12 cells assessed as increase in cell viability at 5 uM preincubated for 2 hrs followed by SNP stimulation for 24 hrs by MTT assay relative to control; type: functional
[18] = Acute toxicity in BALB/c mouse assessed as survival rate at 1000 mg/kg, ip measured after 7 days; type: organism-based; details: in vivo, 168 h, time 7 day
[19] = Half life in Sprague-Dawley rat at 5 mg/kg, iv measured upto 24 hrs by LC-MS/MS analysis; type: ADME, organism-based; details: in vivo
[20] = Acute toxicity in BALB/c mouse assessed as survival rate at 550 mg/kg, ip measured after 7 days; type: organism-based; details: in vivo, 168 h, time 7 day
PC-12 [21] = experiment: Neuroprotective activity against SNP-induced apoptotic rat PC-12 cells assessed as reduction in nuclear shrinkage by measuring the decrease in blue fluorescence signal at 10 uM preincubated for 2 hrs followed by SNP stimulation for 24 hrs by Hoechst 33258 staining based fluorescence microscopic analysis; type: functional, cell-based
[22] = Acute toxicity in ip dosed BALB/c mouse assessed as lethal dose measured after 7 days; type: organism-based; details: in vivo, time 7 day
[23] = target: Voltage-gated inwardly rectifying potassium channel KCNH2 (Homo sapiens, UniProt Q12809); experiment: Inhibition of hERG channel expressed in HEK293 cells at -80 mV holding potential by automated patch clamp method; type: toxicity, cell-based
Sequence of Voltage-gated inwardly rectifying potassium channel KCNH2 (Q12809 whole entry): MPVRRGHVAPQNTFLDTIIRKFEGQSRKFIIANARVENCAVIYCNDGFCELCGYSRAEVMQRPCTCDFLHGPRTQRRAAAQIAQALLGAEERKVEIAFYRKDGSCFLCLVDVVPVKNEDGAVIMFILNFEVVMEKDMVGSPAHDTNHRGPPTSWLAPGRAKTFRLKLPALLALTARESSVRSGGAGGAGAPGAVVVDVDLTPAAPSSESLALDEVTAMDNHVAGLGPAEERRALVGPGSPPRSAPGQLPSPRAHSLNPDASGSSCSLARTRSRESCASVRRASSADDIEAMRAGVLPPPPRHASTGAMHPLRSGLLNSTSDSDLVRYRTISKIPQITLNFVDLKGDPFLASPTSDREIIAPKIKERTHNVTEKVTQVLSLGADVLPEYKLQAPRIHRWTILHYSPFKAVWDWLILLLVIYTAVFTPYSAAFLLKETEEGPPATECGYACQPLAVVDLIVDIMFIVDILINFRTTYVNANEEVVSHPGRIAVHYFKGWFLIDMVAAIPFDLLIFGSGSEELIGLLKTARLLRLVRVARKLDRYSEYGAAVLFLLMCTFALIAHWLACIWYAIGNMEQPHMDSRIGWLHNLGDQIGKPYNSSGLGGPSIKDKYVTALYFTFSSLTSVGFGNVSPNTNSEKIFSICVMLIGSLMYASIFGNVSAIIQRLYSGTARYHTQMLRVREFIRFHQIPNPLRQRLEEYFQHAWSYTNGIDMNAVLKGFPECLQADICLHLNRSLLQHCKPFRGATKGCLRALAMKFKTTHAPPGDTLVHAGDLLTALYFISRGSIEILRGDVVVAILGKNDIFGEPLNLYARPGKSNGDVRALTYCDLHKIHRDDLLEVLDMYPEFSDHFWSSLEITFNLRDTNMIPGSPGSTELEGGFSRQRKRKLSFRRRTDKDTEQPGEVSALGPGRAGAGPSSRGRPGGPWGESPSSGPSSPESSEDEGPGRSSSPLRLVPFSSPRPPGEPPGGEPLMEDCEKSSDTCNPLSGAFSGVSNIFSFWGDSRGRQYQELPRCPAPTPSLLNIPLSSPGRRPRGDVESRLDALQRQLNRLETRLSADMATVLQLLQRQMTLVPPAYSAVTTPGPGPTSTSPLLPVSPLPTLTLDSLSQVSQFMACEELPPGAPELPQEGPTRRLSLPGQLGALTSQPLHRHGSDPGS

[24] = Metabolic stability in human plasma assessed as parent compound remaining at 200 uM measured after 90 min by LC-MS/MS analysis relative to control; type: ADME, cell-free; details: read-out: Stability
[25] = Plasma protein binding in Sprague-Dawley rat plasma at 10 uM incubated for 6 hrs by LC-MS/MS based equilibrium dialysis method; type: ADME, cell-free; details: read-out: PPB (converted)
PC-12 [26] = experiment: Neuroprotective activity against SNP induced rat PC-12 cells assessed as increase in cell viability at 1 uM preincubated for 2 hrs followed by SNP stimulation for 24 hrs by MTT assay relative to control; type: functional
[27] = target: T1, Nuclear factor erythroid 2-related factor 2 (Rattus norvegicus); experiment: Activation of Nrf2 pathway in rat PC-12 cells assessed as decrease in Nrf2 accumulation in cytoplasm at 0.5 to 10 uM measured after 3 hrs by Western blot analysis; type: cell-based; details: filed as activator, dose 0.5-10 µM
[28] = Cmax in Sprague-Dawley rat at 5 mg/kg, ip measured at 2 hrs by LC-MS/MS analysis; type: ADME, organism-based; design: dose 5 mg/kg, time 2 hrs, route ip; details: in vivo

Q: For `Cc1cc(C)cc(-n2nc(-c3ccc(C(F)(F)F)cc3O)nc2-c2ccccc2O)c1`, which Activity (Rattus norvegicus [1]) is on record?
A: Active

Q: And the MRT [2]?
A: 2.84 h

Q: And the Tmax [3]?
A: 4.8 min

Q: What about the Activity (Rattus norvegicus [4]) of the same compound?
A: 1.5

Q: And the Activity [5]?
A: Active

Q: What about the remaining at 2 h, 200 µM [6] of the same compound?
A: 88.9%

Q: What about the MRT [7] of the same compound?
A: 16.5 h

Q: What about the Activity [8] of the same compound?
A: Active

Q: What about the Activity [9] of the same compound?
A: Active

Q: And the Activity (Rattus norvegicus [10])?
A: 1.6

Q: And the AUC(0-inf) [11]?
A: 10200 ng·h/mL

Q: And the CL [12]?
A: 0.0017 (mg/kg)/(ng/ml)/hr

Q: And the Activity (PC-12 [13])?
A: 105.13%

Q: What about the Activity (Rattus norvegicus [14]) of the same compound?
A: Active

Q: And the AUC(0-inf) [15]?
A: 2930 ng·h/mL

Q: What about the remaining at 1 h, 200 µM [16] of the same compound?
A: 90.7%

Q: And the Activity (PC-12 [17])?
A: 101.59%

Q: What about the Activity [18] of the same compound?
A: Toxic

Q: What about the half-life [19] of the same compound?
A: 8.26 h

Q: And the Activity [20]?
A: Non-Toxic

Q: What about the Activity (PC-12 [21]) of the same compound?
A: Active

Q: What about the LD50 at 168 h [22] of the same compound?
A: 789 mg/kg

Q: What about the pIC50 [23] of the same compound?
A: < 4.52

Q: What about the remaining at 1.5 h, 200 µM [24] of the same compound?
A: 89.5%

Q: And the fraction unbound at 6 h, 10 µM [25]?
A: 0.0008

Q: And the Activity (PC-12 [26])?
A: 76.86%

Q: And the Activity [27]?
A: Active

Q: And the Cmax [28]?
A: 323 ng/mL
